Experimental data from PubChem BioAssay AID1508610 (The Scripps Research Institute Molecular Screening Center, 2020).
Activity calls are given as the source filed them. The rule behind the calls is not given here.

biological target: G-protein coupled receptor 151 (Homo sapiens) (UniProt Q8TDV0); test: GPR151 activator potency, dose response, cell-based (AID 1508610); conditions: cell-based GPR151 activation reporter
Sequence (Q8TDV0 whole entry, looked up): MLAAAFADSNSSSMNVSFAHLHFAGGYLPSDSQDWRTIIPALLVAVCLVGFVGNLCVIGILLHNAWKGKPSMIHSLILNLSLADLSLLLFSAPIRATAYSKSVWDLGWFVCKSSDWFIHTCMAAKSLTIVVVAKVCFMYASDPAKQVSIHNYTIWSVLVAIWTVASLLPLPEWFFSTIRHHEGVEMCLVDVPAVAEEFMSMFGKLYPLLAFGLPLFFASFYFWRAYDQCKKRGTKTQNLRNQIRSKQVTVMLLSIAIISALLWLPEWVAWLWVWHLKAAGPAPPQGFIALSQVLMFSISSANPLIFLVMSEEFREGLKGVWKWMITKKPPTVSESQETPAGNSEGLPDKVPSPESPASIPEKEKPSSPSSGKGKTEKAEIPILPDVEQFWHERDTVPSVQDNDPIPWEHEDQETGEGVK

| SMILES | EC50 |
| --- | --- |
| O=C1N(CN2CCC3(CC2)OCCO3)c2ccccc2C12OCCCO2 | > 28 µM (inactive) |
| COc1ccccc1-c1nnc(NC(=O)c2ccc([N+](=O)[O-])s2)o1 | > 9.17 µM (inactive) |
| Cc1n[nH]c(C)c1S(=O)(=O)NCc1ccc(F)cc1 | > 28 µM (inactive) |
| O=C(NC1CC1)c1ccc2nc(-c3csc4ccccc34)sc2c1 | > 28.1 µM (inactive) |
| O=c1oc2cc(O)ccc2cc1-c1ccc(Cl)cc1 | > 28.8 µM (inactive) |
| O=C(NCc1ccc(F)cc1)C(=O)Nc1cccc(Cl)c1 | > 28 µM (inactive) |
| C=CCN(c1ccc(C(=O)Nc2ccc(Cl)cc2)cc1)S(C)(=O)=O | > 28 µM (inactive) |
| O=C(O)c1ccc(COc2cccc(CO)c2)cc1 | > 28 µM (inactive) |
| COc1ccc(C(=O)Nc2cc(C(=O)NCc3ccc(F)cc3)ccc2N2CC3CC(C2)c2cccc(=O)n2C3)cc1 (stereo not given) | > 16.9 µM (inactive) |
| Cc1nc(/C=C/c2ccc(Cl)cc2)sc1C(=O)O | > 32 µM (inactive) |
| Cc1cc2nc3c(=O)n(C4CCCCCC4)c(=O)[nH]c3nc2cc1N | > 28 µM (inactive) |
| COc1ccc(C(=O)Nc2cccc(C(=O)N3CCCC3)c2)cc1 | > 28 µM (inactive) |
| COc1cccn2c(C(=O)Nc3ccc(Cl)cc3)c(C(F)(F)F)nc12 | > 28 µM (inactive) |
| Cc1ccc(-c2csc3nnc(SCC(=O)NC(N)=O)n23)cc1 | > 29 µM (inactive) |
| C=CCN1C(=O)/C(=C/c2ccc(Cl)cc2)C(=O)NC1=S | > 28 µM (inactive) |
| CCN(CC)C(=O)C(=O)c1c(C)n(C)c2ccccc12 | > 28 µM (inactive) |
| CC(C)Cn1c(-c2nn(C)cc2Cl)n[nH]c1=S | > 28 µM (inactive) |
| O=C(O)c1cccc(COc2cccc(Cl)c2)c1 | > 28 µM (inactive) |
| CCN=C1SC(CC(=O)Nc2sc(C)c(C)c2C(=O)OC)C(=O)N1CC (stereo not given) | > 28.2 µM (inactive) |
| O=C1CCCCN1c1cccc(NS(=O)(=O)c2cc(F)ccc2F)c1 | > 28 µM (inactive) |
| COc1ccc(-c2nnc(/C=C/c3cccs3)o2)cc1 | > 27.6 µM (inactive) |
| O=C(Nc1nc2ccccc2s1)c1ccccc1F | > 31.9 µM (inactive) |
| Cc1cc2nc(-c3cccnc3SCC(=O)NCc3ccco3)[nH]c2cc1C | > 28 µM (inactive) |
| NC[C@H]1O[C@H](O[C@H]2[C@H](O)[C@@H](O[C@H]3O[C@H](CO)[C@@H](O)[C@H](N)[C@H]3O)[C@H](N)C[C@@H]2N)[C@H](N)C[C@@H]1O | > 28 µM (inactive) |
| COC(=O)c1cc2c(N3CCC(Cc4ccccc4)CC3)ncnc2s1 | > 27.4 µM (inactive) |

| SMILES | EC50 |
| --- | --- |
| Cc1ccc2c(c1)CN(CCC(=O)NCCCn1nnc3ccccc31)CC(C)O2 (stereo not given) | > 28 µM (inactive) |
| CCCCCCCCCCCCCCCC(=O)SCCOP(=O)(O)OCC[N+](C)(C)C | > 11.2 µM (inactive) |
| O=C(Nc1ncc([N+](=O)[O-])s1)c1cccs1 | > 28 µM (inactive) |
| C=CCn1c(C)cc(C2=NNC(=NCC)SC2)c1C | > 28.7 µM (inactive) |
| O=C1CCN(C(=O)c2ccc(-c3nc4ccccc4s3)s2)CC1 | > 29.5 µM (inactive) |
| CCOC(=O)c1sc(NC(=O)c2sccc2C)cc1C | > 29 µM (inactive) |
| CCN(CC)C(=S)SCCC(=O)NC(=O)Nc1ccc(F)cc1 | > 28 µM (inactive) |
| O=C(O)CC1c2ccccc2CCN1S(=O)(=O)c1ccc(Cl)cc1 (stereo not given) | inactive |
| N=c1sc2c(n1CC(=O)c1ccccc1)CCCC2 | > 27 µM (inactive) |
| Fc1cccc(-c2cc3nc4c(c(N5CCOCC5)n3n2)CCC4)c1 | > 28 µM (inactive) |
| CCC(C)NC(=O)c1cc(=O)[nH]c2ccc(Br)cc12 (stereo not given) | 0.867 µM |
| Cc1cc(N2CCCCC2)nc2ccc(NC(=O)c3cccc([N+](=O)[O-])c3)cc12 | > 29.2 µM (inactive) |
| O=C(Nc1nc(-c2ccc(I)cc2)cs1)c1ccc(Cl)s1 | > 24.9 µM (inactive) |
| Cn1nc(C(=O)NCc2ccc(F)cc2)c2c1-c1ccccc1OC2 | > 28 µM (inactive) |
| COc1cccc(-c2ccc(=O)n(CC(=O)Nc3ccc(Cl)c(C(F)(F)F)c3)n2)c1 | > 28 µM (inactive) |
| O=C(NCCO)c1ccc2nc(-c3csc4ccccc34)sc2c1 | > 28.1 µM (inactive) |
| O=C(c1ccc2c(c1)OCO2)N1CCN(c2ccc(Cl)cc2)CC1 | > 28 µM (inactive) |
| COC(=O)c1ccc(C2C(C#N)=C(N)Oc3n[nH]c(C45CC6CC(CC(C6)C4)C5)c32)cc1 (stereo not given) | inactive |
| O=C(Cn1c2c(c(-c3ccccc3Cl)cc1=O)CCC2)NC1CCCC1 | > 28 µM (inactive) |
| CC[C@@H]1NC(=O)[C@H]2CN(C(=O)c3cccc(Cl)c3)CCN2C1=O | > 28 µM (inactive) |
| N#Cc1cccc(C(=O)NC2CCCC2)c1 | > 31.4 µM (inactive) |
| CCOCCCNC(=O)CSc1ncccc1-c1nc2cc(C)c(C)cc2[nH]1 | > 28 µM (inactive) |
| CC(C)NC(=O)c1cnc2scc(-c3ccccc3)n2c1=O | > 28 µM (inactive) |
| CCOC(=O)c1ccccc1NC(=O)CN(c1ccc(Cl)c(Cl)c1)S(C)(=O)=O | > 28 µM (inactive) |
| CC(=O)Oc1cccc(N2C(=O)C3C4c5ccccc5C(C)(c5ccccc54)C3C2=O)c1 (stereo not given) | 1e-05 µM |
